Reference: ChEMBL document CHEMBL1806440, “N-β-glycosyl sulfamides are selective inhibitors of the cancer associated carbonic anhydrase isoforms IX and XII” (Bioorg Med Chem Lett, 2011)

Each compound was assayed against Carbonic anhydrase 9 (Homo sapiens, UniProt Q16790).

| Structure (SMILES) | Ki |
| --- | --- |
| CC(=O)OC[C@H]1O[C@@H](NS(N)(=O)=O)[C@H](OC(C)=O)[C@@H](OC(C)=O)[C@@H]1OC(C)=O | 7.7 nM |
| CC(=O)OC[C@H]1O[C@@H](NS(N)(=O)=O)[C@H](OC(C)=O)[C@@H](OC(C)=O)[C@H]1OC(C)=O | 7.2 nM |
| CC(=O)OC[C@H]1O[C@@H](NS(N)(=O)=O)[C@@H](OC(C)=O)[C@@H](OC(C)=O)[C@@H]1OC(C)=O | 5 nM |
| C[C@H]1O[C@@H](NS(N)(=O)=O)[C@@H](O)[C@@H](O)[C@@H]1O | 3140 nM |
| CC(=O)OC[C@H]1O[C@@H](NS(N)(=O)=O)C[C@@H](OC(C)=O)[C@@H]1OC(C)=O | 13 nM |
| CC(=O)OC[C@H]1O[C@@H](NS(N)(=O)=O)C[C@@H](OC(C)=O)[C@H]1OC(C)=O | 16 nM |
